Source: ChEMBL document CHEMBL6114934, “Guaiacol-chalcone and nitroguaiacol-chalcone derivatives: In vitro and in silico antibacterial evaluation” (2025)
Values after ≈ are worked out from the molar mass of the structure shown. Active and inactive are the calls of the source. The rule behind the calls is not given here.

What was measured:
[1] = tested on: Staphylococcus aureus; experiment: Antibacterial activity against Staphylococcus aureus at 256 ug/ml by broth microdilution method; format: functional, organism-based; conditions: dose 256.0 µg/ml
[2] = tested on: Klebsiella pneumoniae; experiment: Antibacterial activity against Klebsiella pneumoniae at 256 ug/ml by broth microdilution method; format: functional, organism-based; conditions: dose 256.0 µg/ml
[3] = tested on: Acinetobacter baumannii; experiment: Antibacterial activity against Acinetobacter baumannii at 256 ug/ml by broth microdilution method; format: functional, organism-based; conditions: dose 256.0 µg/ml
[4] = tested on: Pseudomonas aeruginosa; experiment: Antibacterial activity against Pseudomonas aeruginosa at 256 ug/ml by broth microdilution method; format: functional, organism-based; conditions: dose 256.0 µg/ml
[5] = tested on: Klebsiella aerogenes; experiment: Antibacterial activity against Klebsiella aerogenes at 256 ug/ml by broth microdilution method; format: functional, organism-based; conditions: dose 256.0 µg/ml
[6] = tested on: Staphylococcus aureus; experiment: Antibacterial activity against Staphylococcus aureus by broth microdilution method; format: functional
[7] = tested on: Staphylococcus aureus; experiment: Antibacterial activity against methicillin-resistant Staphylococcus aureus by broth microdilution method; format: functional
[8] = tested on: Staphylococcus aureus; experiment: Antibacterial activity against Staphylococcus aureus; format: functional
[9] = tested on: Staphylococcus aureus; experiment: Antibacterial activity against methicillin-resistant Staphylococcus aureus; format: functional

Row | Compound | Activity [1] | Activity [2] | Activity [3] | Activity [4] | Activity [5] | MIC [6] [µg/mL] | MIC [7] [µg/mL] | MIC [8] [µg/mL] | MIC [9] [µg/mL]
1 | COc1cc(C(=O)/C=C/c2cccc(Cl)c2)ccc1O | inactive | inactive | inactive | inactive | inactive | – | – | – | –
2 | COc1cc(C(=O)/C=C/c2ccc(Cl)cc2)cc([N+](=O)[O-])c1O | Active | inactive | inactive | inactive | inactive | 16 (≈ 47.9 µM) | 32 (≈ 95.9 µM) | – | –
3 | COc1cc(C(=O)/C=C/c2cccc(F)c2)cc([N+](=O)[O-])c1O | Active | inactive | inactive | inactive | inactive | 32 (≈ 101 µM) | 64 (≈ 202 µM) | – | –
4 | COc1cc(C(=O)/C=C/c2ccc(F)cc2)ccc1O | inactive | inactive | inactive | inactive | inactive | – | – | – | –
5 | CCOc1ccc(/C=C/C(=O)c2ccc(O)c(OC)c2)cc1 | Active | inactive | inactive | inactive | inactive | 16 (≈ 53.6 µM) | 32 (≈ 107 µM) | – | –
6 | COc1cc(C(=O)/C=C/c2cccc(C(F)(F)F)c2)ccc1O | inactive | inactive | inactive | inactive | inactive | – | – | – | –
7 | COc1cc(C(=O)/C=C/c2ccc(Cl)c(Cl)c2)ccc1O | inactive | inactive | inactive | inactive | inactive | – | – | – | –
8 | COc1cc(C(=O)/C=C/c2cccc(F)c2)ccc1O | inactive | inactive | inactive | inactive | inactive | – | – | – | –
9 | COc1cc(C(=O)/C=C/c2ccc(Cl)cc2Cl)cc([N+](=O)[O-])c1O | Active | inactive | inactive | inactive | inactive | 256 (≈ 695 µM) | 256 (≈ 695 µM) | – | –
10 | O=C(/C=C/c1ccc(Cl)c(Cl)c1)c1cc(O)c(O)c([N+](=O)[O-])c1 | – | – | – | – | – | – | – | 1 (≈ 2.82 µM) | 16 (≈ 45.2 µM)
11 | COc1cc(C(=O)/C=C/c2ccc(SC)cc2)cc([N+](=O)[O-])c1O | Active | inactive | inactive | inactive | inactive | 128 (≈ 371 µM) | > 256 | – | –
12 | COc1cc(C(=O)/C=C/c2ccc(Cl)cc2Cl)ccc1O | inactive | inactive | inactive | inactive | inactive | – | – | – | –
13 | COc1cc(C(=O)/C=C/c2ccc(Cl)c(Cl)c2)cc([N+](=O)[O-])c1O | Active | inactive | inactive | inactive | inactive | 8 (≈ 21.7 µM) | 8 (≈ 21.7 µM) | – | –
14 | COc1cc(C(=O)/C=C/c2ccc(SC)cc2)ccc1O | inactive | inactive | inactive | inactive | inactive | – | – | – | –
15 | COc1cc(C(=O)/C=C/c2ccc(F)cc2)cc([N+](=O)[O-])c1O | Active | inactive | inactive | inactive | inactive | 64 (≈ 202 µM) | 64 (≈ 202 µM) | – | –
16 | COc1cc(C(=O)/C=C/c2ccc(Cl)cc2)ccc1O | inactive | inactive | inactive | inactive | inactive | – | – | – | –
17 | COc1cc(C(=O)/C=C/c2cccc(Cl)c2)cc([N+](=O)[O-])c1O | Active | inactive | inactive | inactive | inactive | 16 (≈ 47.9 µM) | 64 (≈ 192 µM) | – | –
18 | COc1cc(C(=O)/C=C/c2cccc(C(F)(F)F)c2)cc([N+](=O)[O-])c1O | Active | inactive | inactive | inactive | inactive | 32 (≈ 87.1 µM) | 64 (≈ 174 µM) | – | –
19 | CC(=O)N1N=C(c2cc(O)c(O)c([N+](=O)[O-])c2)CC1c1ccc(Cl)cc1 (centres undefined) | – | – | – | – | – | – | – | 0.5 (≈ 1.33 µM) | 32 (≈ 85.2 µM)
20 | COc1cc(C(=O)/C=C/c2ccc([N+](=O)[O-])cc2)cc([N+](=O)[O-])c1O | Active | inactive | inactive | inactive | inactive | 32 (≈ 92.9 µM) | 64 (≈ 186 µM) | – | –
21 | COc1cc(C(=O)/C=C/c2ccc(Br)cc2F)ccc1O | inactive | inactive | inactive | inactive | inactive | – | – | – | –
